One may read the CC50 as the concentration giving 50% cytotoxicity. In general, IC50 refers to the midpoint of a concentration-inhibition curve.

≈ marks a conversion by molar mass, not a printed value.

The source of these data is patent US20150080461A1, “Composition Having Antiviral Activity against Flavivirus” (University Malaya, priority 2012, published 2015).

Data set [1] in a line: MTT cytotoxicity assay on Vero cells. The format is cell-based. The settings on record: African green monkey, read-out: CC50, cytotoxicity effect against Vero cells. How it is done: C6/36 mosquito cell line derived from Aedes albopictus and Vero cell line were used. Both cell lines were maintained and propagated in Eagle's Minimum Essential Medium (EMEM) containing 10% fetal bovine serum. Cultured C6/36 and Vero cells were incubated at 28° C. and 37° C., respectively in 5% CO2 humidified chamber. At the time of virus propagation, serum concentration was reduced to 2%. Dengue virus type-2 (DENV-2) New Guinea C strain (NGC) was propagated using C6/36 cell line and harvested after CPE presentation on day seven post infection. After titration, viral stock was stored at -70° C. MTT (Dimethyl thiazolyl diphenyl tetrazolium salt) assay was performed to determine cytotoxicity of quercetin on Vero cells.
For orientation: Formazan colour is commonly taken as a measure of viable cells.

The test system of data set [2] is DENV-2 (NGC strain). Briefly: Continuous treatment antiviral activity against DENV-2 (FFURA, qRT-PCR). The format is cell-based, Dengue virus type-2. The method, then: In separate experiment, to determine the antiviral activities of quercetin when used continuously, different concentrations of quercetin were added to the Vero cell monolayer five hours before virus infection. After five hours of pre-infection treatment, the cells were washed twice with sterile PBS and then 200 FFU of DENV-2 was inoculated to the cells and incubated at 37° C. for one hour. Infected cells were continuously incubated with the respective concentration of quercetin for four days post infection. Viral foci formed were counted and DENV RNA copy number to indicate inhibition of virus replication was quantified using quantitative RT-PCR.
(§1) In general, antiviral activity of quercein was evaluated by measuring the reduction in number of viral foci. Confluent Vero cell monolayers prepared in 24 wells cell culture microplates were used. Then the infected cells treated using the different treatment regime was overlaid with 1.5% of carboxy methyl cellulose (CMC) (Sigma-Aldrich, St. Louis, Mo., USA) containing EMEM. Viral foci were visualized using peroxidase-based foci staining assay four days post infection. The number of DENV-2 foci formed was counted under a stereomicroscope and the virus titer was expressed as Foci-Forming-Unit (FFU). The percentage of viral foci reduction (RF %) compared to untreated controls was calculated as follows: […]
(§2) where, C is the mean of the number of foci for negative control well (without compound) and T is the mean of the number of foci in treated wells.
(§3) Reduction in the number of viral foci was further verified using quantitative real time polymerase chain reaction (qRT-PCR) amplification.
(§4) Quantitative RT-PCR was performed to determine the effect of the compound on DENV replication by quantifying DENV-2 genomic RNA copy number. Briefly, intracellular and extracellular DENV-2 RNAs were harvested from the DENV-infected Vero cells. Viral RNA was extracted using two types of RNA extraction kits (QlAamp Viral RNA mini kit and RNeasy mini kit) (Qiagen, Hilden, Germany). Quantitative RT-PCR assay was performed by adding 1 µl of extracted DENV RNA to the SensiMix SYBR green reagent (Quantace, Watford, United Kingdom) which contained 7.4 μl ddH2O, 10 μl 2× SensiMix One-Step, 0.4 μl 50× SYBR Green solution, 10 units of RNAse Inhibitor, 50 pmol of forward (DNF) and also reverse (D2R) primers. All samples were assayed in triplicate. […] For absolute quantitation of the viral RNA, a standard curve was established with a serially diluted RNA extracted from DENV-2 stock with a known titer.
On the technique in general: Quantitative PCR measures a nucleic acid by following its amplification.

For data set [3], the system named is DENV-2 (NGC strain). Briefly: Post-adsorption antiviral activity against intracellular replication of DENV-2 (FFURA, qRT-PCR). The class given is cell-based, Dengue virus type-2. How it is done:
Post-adsorption antiviral activity of quercetin against intracellular replication of DENV-2 was performed by inoculating 200 FFU of virus to each well containing monolayer of Vero cells. After adsorption of virus to the cells for one hour at 37° C., the cells were washed with PBS to remove the unadsorped viruses. Then, different concentrations of quercetin were added to the cells followed by four days incubation at 37° C. Viral foci formed were counted and DENV RNA copy number to indicate inhibition of virus replication was quantified using quantitative RT-PCR.
as §1, §2, §3
as §4, with “triplicate. Amplification was performed using the DNA Engine Opticon system (MJ Research/Bio-Rad, Hercules, Calif.) with the following cycling conditions: reverse transcription at 50° C. for 30 min, initial denaturation at 95° C. for 10 min, followed by 45 cycles of 95° C. for 15 sec, 59° C. for 30 sec and 72° C. for 30 sec.” for “triplicate.”

The test system of data set [4] is DENV-2 (NGC strain). Briefly: Anti-adsorption activity against DENV-2 (FFURA, qRT-PCR). The class given is cell-based, Dengue virus type-2. The settings on record: added to cells simultaneously during infection, FFURA and qRT-PCR. The method, then: In another experiment, Vero cells at ˜80% confluency were infected with 200 FFU of DENV-2 in the presence or absence of different concentrations of quercetin. The microplate was kept at 37° C. for one hour for virus adsorption. Then the cells were washed twice using sterile PBS and incubated for two hours at 37° C. Cells were then incubated for 4 days and foci formed was counted and DENV RNA copy number to indicate inhibition of virus adsorption was quantified using quantitative RT-PCR.
In general, antiviral activity of quercein was evaluated by measuring the reduction in number of viral foci. Confluent Vero cell monolayers prepared in 24 wells cell culture microplates were used. […] The number of DENV-2 foci formed was counted under a stereomicroscope and the virus titer was expressed as Foci-Forming-Unit (FFU). The percentage of viral foci reduction (RF %) compared to untreated controls was calculated as follows: […]
as §3
(§5) Quantitative RT-PCR was performed to determine the effect of the compound on DENV replication by quantifying DENV-2 genomic RNA copy number. […] For absolute quantitation of the viral RNA, a standard curve was established with a serially diluted RNA extracted from DENV-2 stock with a known titer.

Data set [5] concerns DENV-2 (NGC strain). Briefly: Direct virucidal effect against DENV-2 (FFURA, qRT-PCR). The class given is cell-based, Dengue virus type-2. How it is done: Direct virucidal effect of quercetin was investigated by incubating DENV-2 suspension containing 200 FFU with an equal volume of the different concentrations of quercetin for two hours at 37° C. Then, Vero cells were infected with the treated viral suspension in triplicates. At one hour adsorption at 37° C., cells were washed twice with PBS in order to remove unadsorbed viruses. The microplate was incubated at 37° C. for four days. Viral foci formed were counted and DENV RNA copy number to indicate direct virucidal effects was quantified using quantitative RT-PCR.
In general, antiviral activity of quercein was evaluated by measuring the reduction in number of viral foci. […] The number of DENV-2 foci formed was counted under a stereomicroscope and the virus titer was expressed as Foci-Forming-Unit (FFU). The percentage of viral foci reduction (RF %) compared to untreated controls was calculated as follows: […]
as §3, §5

Regarding `O=c1c(O)c(-c2ccc(O)c(O)c2)oc2cc(O)cc(O)c12` [quercetin, 2-(3,4-dihydroxyphenyl)-3,5,7-trihydroxy-4H-1-benzopyran-4-one], the CC50 in data set [1] came to 252.6 ± 0.17 µg/mL (≈ 836 µM). Further, the “decrease of the number of DENV-2 foci” value with DENV-2 (NGC strain) [2] (50 μg/mL quercetin, continuous treatment of Vero cells, vs non-treated cells) is on record as 70%±1.5. The IC50 with DENV-2 (NGC strain) [2] (Dengue virus, DENV2, continuous treatment from 5 hours before infection up to 4 days post-infection, Vero cells, FFURA, read-out: IC50, anti-dengue activity) amounted to 28.9 µg/mL (≈ 95.6 µM); in the data set on DENV-2 (NGC strain) [3] (Dengue virus, DENV2, added post viral adsorption, Vero cells, FFURA), 35.7 µg/mL (≈ 118 µM). Moreover, the figures for the SI value in the data set on DENV-2 (NGC strain) [2] (continuous treatment) and with DENV-2 (NGC strain) [3] (post-adsorption assay) were 8.74 and 7.07, respectively. The “decrease of DENV-2 RNA production” value with DENV-2 (NGC strain) [2] (continuous treatment, qRT-PCR) is “more than 75.7%±1.57”. For the same compound, in the data set with DENV-2 (NGC strain) [3] (50 μg/mL quercetin, post-adsorption, qRT-PCR, vs non-treated infected cells), the “decrease of DENV-2 specific RNA production” value is recorded as “more than 67%±1”. The “appearance of viral foci in treated cells” value in the data set with DENV-2 (NGC strain) [3] (50 μg/ml quercetin, foci staining, vs untreated dengue infected cells) is “small, less intensely stained and more diffused”. Besides, the “anti-adsorption activity against DENV-2” value in the data set with DENV-2 (NGC strain) [4] is recorded as about 5%. The “decrease in copy number of DENV-2 RNA following direct treatment” value in the data set on DENV-2 (NGC strain) [5] (different concentrations of compound, qRT-PCR) is “no significant decrease”. Besides, in the data set with DENV-2 (NGC strain) [5] (virus incubated with compound two hours at 37° C., foci), the “direct virucidal activity against DENV-2” value is listed as “no significant direct virucidal activity”.
